Literature values in patent US20090252791A1, “PHARMACEUTICAL COMPOSITIONS COMPRISING A TRIPTAN AND A NONSTEROIDAL ANTI-INFLAMMATORY DRUG” (priority 2008, published 2009).

Solubility in water and in saline: readily soluble
SMILES: CNS(=O)(=O)Cc1ccc2[nH]cc(CCN(C)C)c2c1 [Sumatriptan, 3-[2-(dimethylamino)ethyl]-N-methyl-1H-indole-5-methanesulfonamide]
